Legend:
SV2A [1] = target: T1, SV2A (Rattus norvegicus, UniProt Q02563); experiment: in vivo SV2A receptor occupancy in rats; conditions: ip, 0.1 mg/kg i.p., 60 minutes post administration
T1 construct: from tissue; host or cells: brain of living rats

SV2A [2] = target: SV2A (Homo sapiens, UniProt Q7L0J3); experiment: SV2A binding in vitro, displacement of levetiracetam
[3] = anti-convulsant activity in vivo
[4] = rodent preclinical cognitive deficit models; format: in vivo; conditions: range of rodent preclinical cognitive deficit models
[5] = repeat dose pharmacokinetics in humans; format: in vivo, human; conditions: once daily repeat dosing, all doses
[6] = treatment-emergent adverse events, multiple dose study in young male subjects; format: in vivo, human
Excerpt: Details on the adverse events occurring in the study is provided below. As may be seen the doses of interest were safe and well tolerated.

[7] = test system: functional connectivity of brain networks (DMN, visual network); experiment: resting state BOLD-fMRI functional connectivity; format: in vivo, human; conditions: post dose versus baseline
Procedure: This example describes the fMRI analysis performed in the context of the study in Example 3. Simultaneous with the dynamic PET described in example 3 above, MRI data were acquired using a resting state BOLD-fMRI (rs-fMRI) protocol. In the following section, the methodology and results of the analysis of these MRI data are presented.
Resting state BOLD-fMRI data were acquired according to the following protocol: For the analysis of the rs-fMRI scans, all data were converted to the BIDS format for processing with the CONN toolbox (release 19c).
The following preprocessing steps were performed: • Slice timing correction: Temporal misalignment between different slices of the rs-fMRI scans, due to the sequential nature of the fMRI acquisition, is corrected by applying an appropriate timeshift to match the actual acquisition time • Realignment: RS-fMRI data were realigned where all scans were coregistered to the first scan of the first session. This way, potential susceptibility distortion-by-motion interactions were also addressed by estimating the derivatives of the deformation field with respect to head movement, and resampling the functional data to match the deformation field of the reference image. • Outlier detection: Potential outlier scans were identified from the observed global BOLD signal and the amount of subject-motion in the scanner. […]

SV2A (Homo sapiens, UniProt Q7L0J3), sequence (Q7L0J3 whole entry, species assumed): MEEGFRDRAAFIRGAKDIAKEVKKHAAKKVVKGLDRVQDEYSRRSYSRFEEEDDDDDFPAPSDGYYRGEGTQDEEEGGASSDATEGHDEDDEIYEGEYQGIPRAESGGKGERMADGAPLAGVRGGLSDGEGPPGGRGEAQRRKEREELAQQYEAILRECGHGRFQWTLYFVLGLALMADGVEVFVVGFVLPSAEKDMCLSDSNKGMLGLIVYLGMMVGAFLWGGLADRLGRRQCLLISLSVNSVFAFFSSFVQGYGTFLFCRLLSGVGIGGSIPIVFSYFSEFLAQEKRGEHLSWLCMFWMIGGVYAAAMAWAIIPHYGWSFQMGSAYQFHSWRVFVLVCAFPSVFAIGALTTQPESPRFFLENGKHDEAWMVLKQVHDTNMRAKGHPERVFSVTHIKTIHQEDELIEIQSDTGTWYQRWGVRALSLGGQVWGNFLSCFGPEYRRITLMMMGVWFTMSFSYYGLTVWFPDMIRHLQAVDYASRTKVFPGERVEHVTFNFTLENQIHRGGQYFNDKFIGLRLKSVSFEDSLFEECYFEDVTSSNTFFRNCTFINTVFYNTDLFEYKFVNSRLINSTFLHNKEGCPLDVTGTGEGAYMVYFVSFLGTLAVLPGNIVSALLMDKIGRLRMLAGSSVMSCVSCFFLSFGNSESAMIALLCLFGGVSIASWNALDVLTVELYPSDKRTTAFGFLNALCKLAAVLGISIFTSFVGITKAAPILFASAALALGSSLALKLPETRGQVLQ
T1 sequence (Q02563 whole entry): as the sequence (Q7L0J3 whole entry, species assumed) above, with D53E, S62A, T71A, E144D, A154T, G440S, S482A, I572V, M634L counted along it

Which receptor occupancy at 0.1 mg/kg (SV2A [1]) does the source give for `O=C1C[C@H](c2cc(F)c(F)c(F)c2)CN1Cn1ncnc1Cl` [compound of example 1, (4R)-1-[(5-chloro-1H-1,2,4-triazol-1-yl)methyl]-4-(3,4,5-trifluorophenyl)pyrrolidin-2-one] here?
The receptor occupancy at 0.1 mg/kg was 20 to 50%.

What about the “affinity of binding to SV2A (levetiracetam site)” value (SV2A [2]) of the same molecule?
Its value is “high affinity”.

What about the “displacement of the binding of levetiracetam to SV2A” value (SV2A [2]; in vitro) of the same molecule?
Its value is “competitively displaces”.

What about the anti-convulsant activity [3] of the same molecule?
Its anti-convulsant activity is “without anti-convulsant activity”.

And the “effect on the anti-convulsant effect of levetiracetam” value [3]?
Its value is “competitively inhibits”.

What about the pro-cognitive effects [4] of the same molecule?
The pro-cognitive effects was “possesses pro-cognitive effects”.

And the “time to reach steady state” value [5]?
The value was 8 to 10 days.

What about the “At least 1 TEAE definitively related to treatment, n (%)” value ([6]; 5 mg, N = 6) of the same molecule?
Its value is 0 n (%).

And the “At least 1 TEAE possibly related to treatment, n (%)” value ([6]; 5 mg, N = 6)?
The value was 0 n (%).

What about the “At least 1 TEAE probably related to treatment, n (%)” value ([6]; 5 mg, N = 6) of the same molecule?
The value was 0 n (%).

And the “At least one TEAE, n (%)” value ([6]; 5 mg, N = 6)?
The value was 0 n (%).

And the “At least 1 TEAE definitively related to treatment, n (%)” value ([6]; 10 mg, N = 6)?
The value was 0 n (%).

And the “At least 1 TEAE possibly related to treatment, n (%)” value ([6]; 10 mg, N = 6)?
Its value is 0 n (%).

And the “At least 1 TEAE probably related to treatment, n (%)” value ([6]; 10 mg, N = 6)?
The value was 1 (16.7) n (%).

And the “At least one TEAE, n (%)” value ([6]; 10 mg, N = 6)?
The value was 2 (33.3) n (%).

And the “At least 1 TEAE definitively related to treatment, n (%)” value ([6]; 20 mg, N = 6)?
The value was 0 n (%).

What about the “At least 1 TEAE possibly related to treatment, n (%)” value ([6]; 20 mg, N = 6) of the same molecule?
The value was 4 (66.7) n (%).

What about the “At least 1 TEAE probably related to treatment, n (%)” value ([6]; 20 mg, N = 6) of the same molecule?
The value was 0 n (%).

What about the “At least one TEAE, n (%)” value ([6]; 20 mg, N = 6) of the same molecule?
Its value is 4 (66.7) n (%).

What about the “At least 1 TEAE definitively related to treatment, n (%)” value ([6]; all doses, N = 18) of the same molecule?
Its value is 0 n (%).

What about the “At least 1 TEAE possibly related to treatment, n (%)” value ([6]; all doses, N = 18) of the same molecule?
The value was 4 (22.2) n (%).

And the “At least 1 TEAE probably related to treatment, n (%)” value ([6]; all doses, N = 18)?
Its value is 1 (5.6) n (%).

And the “At least one TEAE, n (%)” value ([6]; all doses, N = 18)?
Its value is 6 (33.3) n (%).

And the “connectivity in the DMN (seed IC12)” value ([7]; low doses (all four individuals at 1 and 2 mg))?
Its value is “modulate and enhance connectivity in the DMN”.

And the “connectivity between IC18 (Visual network) and auditory network” value ([7]; relatively low occupancy levels)?
Its value is “increased”.

Source: patent publication US20240325353A1, “COMPOUND FOR TREATMENT OF COGNITIVE DISORDERS” (Syndesi Therapeutics SA, priority 2021, published 2024)
